# Experimental data published in patent publication US8497278B2, “Imidazo[1,2-a]pyridine compounds” (priority 2008, dated 2013).
# Key:
# 129SVEV mice = assay: Stress-Induced Hyperthermia (SIH) test; type: in vivo; settings: mouse, 60 min before test
# Description: Stress-Induced Hyperthermia (SIH) protocol: The stress-induced hyperthermia (SIH) test is based on the principle that animal's have a natural hyperthermic response to stress. The test involves taking two measures of rectal temperature in the same animal within a 10 minute interval. The two sequential rectal temperature measurements reveal the animal's basal temperature (T1) and 10 minutes later, an enhanced body temperature (T2) due to the stress of the first rectal temperature. The difference T2-T1 (delta T) is the SIH response. When anxiolytic drugs are administered prior to recording temperature, they reduce the stress response.
# Adult male 129SVEV mice (6 weeks old) from Taconic Laboratories (Germantown, N.Y.) were used in these studies. Upon receipt, mice were assigned unique identification numbers (tail marked) and were group housed in OptiMICE ventilated racks. All animals remained group housed during the remainder of the study unless indicated otherwise. All mice were acclimated to the colony room for at least two weeks prior to testing and were subsequently tested at 8 weeks of age. During the period of acclimation, mice were examined on a regular basis, handled, and weighed to assure adequate healtH, D and suitability. Mice were maintained on a 12/12 light/dark cycle with the light on at 7:00 a.m. The room temperature was maintained between 20 and 23° C. with a relative humidity maintained between 30% and 70%. Chow and water were provided ad libitum for the duration of the study. Animals were not disturbed between test days.
# On the day prior to testing, the mice were brought to the experimental room one hour before scheduled lights out and singly housed overnight with food and water ad libitum. On the morning of the experiment, mice were orally dosed via gavage with vehicle, CDP (10 mg/kg) or compounds of the present invention (3, 10 or 30 mg/kg) and placed back in the cages. One hour after oral gavage, each animal was removed from the holding cage and held in a supine position and rectal temperature was measured. The rectal probe was attached to a PhysiTemp digital thermometer (Fisher Scientific) which provides temperature readings at 0.1° C. accuracy. The probe remained inside the animal for approximately 5 seconds or until body temperature reached stability. This temperature was recorded as the baseline rectal temperature (T1). The animal was immediately placed back to the holding cage and after a 10-min interval the 2nd rectal temperature (T2) was taken using the same procedure as in measuring T1. Before each insertion, the rectal probe was cleaned with an alcohol pad and lubricated with sterile K-Y jelly.
# Chlordiazepoxide (10 mg/kg) was used as the positive control. Compounds of the present invention, vehicle (45% hydroxypropyl beta-cyclodextrin) and chlordiazepoxide were administered orally to all groups (n=10 […] per group) 60 minutes prior to behavioral testing. All data were analyzed using an analysis of variance (ANOVA) followed by Fisher's PLSD post hoc test. An effect was considered significance if p<0.05. Statistical outliers above or below 2 standard deviations from the mean in any of the temperature measures were removed from the final analysis.
# [1] = molecular target: T1, α5 subtype containing GABA-A receptors (Homo sapiens, UniProt P18507+P31644); assay: Two-electrode voltage clamp electrophysiology in Xenopus oocytes, potentiation of GABA EC20 response, α5; type: cell-based; settings: 100 nM compound, read-out: Percentage of potentiation alpha5
# T1 construct: expressed in transfected cells; host or cells: Xenopus laevis oocytes, cRNA injected
# Procedure, shortened: (§1)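 Compounds are tested at 100 nM, one per oocyte, against an EC20 GABA (60 μM) response in human α1-, α2-, α3- or α5-β3-γ2L receptors clamped at −80 mV. Oocytes showing rapid desensitization or weak chlordiazepoxide (1 μM) potentiation are excluded.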
# [2] = molecular target: T2, α3 subtype containing GABA-A receptors (Homo sapiens, UniProt P18507+P34903); assay: Two-electrode voltage clamp electrophysiology in Xenopus oocytes, potentiation of GABA EC20 response, α3; type: cell-based; settings: 100 nM compound, read-out: Percentage of potentiation alpha3
# T2 construct: expressed in transfected cells; host or cells: Xenopus laevis oocytes, cRNA injected
# Procedure, shortened: as §1
# T1 sequence (P31644 32-462): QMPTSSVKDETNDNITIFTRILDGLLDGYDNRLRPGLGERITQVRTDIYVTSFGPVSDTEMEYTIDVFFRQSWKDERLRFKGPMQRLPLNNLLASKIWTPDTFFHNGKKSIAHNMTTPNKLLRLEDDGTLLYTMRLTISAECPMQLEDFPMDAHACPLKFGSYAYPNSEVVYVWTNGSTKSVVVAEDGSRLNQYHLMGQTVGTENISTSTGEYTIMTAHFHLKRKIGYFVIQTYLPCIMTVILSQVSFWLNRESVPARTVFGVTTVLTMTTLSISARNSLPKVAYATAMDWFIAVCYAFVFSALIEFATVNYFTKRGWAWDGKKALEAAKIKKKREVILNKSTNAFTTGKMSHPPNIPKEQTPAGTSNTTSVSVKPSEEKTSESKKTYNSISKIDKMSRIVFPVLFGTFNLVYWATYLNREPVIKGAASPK
# T1 sequence (P28472 26-473 partner): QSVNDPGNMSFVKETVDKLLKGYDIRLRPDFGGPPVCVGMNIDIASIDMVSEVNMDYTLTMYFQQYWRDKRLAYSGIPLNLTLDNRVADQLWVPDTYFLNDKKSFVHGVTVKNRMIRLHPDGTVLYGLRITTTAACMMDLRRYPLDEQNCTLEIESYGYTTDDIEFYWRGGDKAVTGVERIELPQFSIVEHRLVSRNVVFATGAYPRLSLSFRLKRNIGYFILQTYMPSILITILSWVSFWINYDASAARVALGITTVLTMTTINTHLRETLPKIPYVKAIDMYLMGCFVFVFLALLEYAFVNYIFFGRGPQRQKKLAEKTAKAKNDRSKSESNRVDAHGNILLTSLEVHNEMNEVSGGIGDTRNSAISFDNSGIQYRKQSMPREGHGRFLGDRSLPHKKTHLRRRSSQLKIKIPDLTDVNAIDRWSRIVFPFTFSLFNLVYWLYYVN
# T1 sequence (P18507 40-475): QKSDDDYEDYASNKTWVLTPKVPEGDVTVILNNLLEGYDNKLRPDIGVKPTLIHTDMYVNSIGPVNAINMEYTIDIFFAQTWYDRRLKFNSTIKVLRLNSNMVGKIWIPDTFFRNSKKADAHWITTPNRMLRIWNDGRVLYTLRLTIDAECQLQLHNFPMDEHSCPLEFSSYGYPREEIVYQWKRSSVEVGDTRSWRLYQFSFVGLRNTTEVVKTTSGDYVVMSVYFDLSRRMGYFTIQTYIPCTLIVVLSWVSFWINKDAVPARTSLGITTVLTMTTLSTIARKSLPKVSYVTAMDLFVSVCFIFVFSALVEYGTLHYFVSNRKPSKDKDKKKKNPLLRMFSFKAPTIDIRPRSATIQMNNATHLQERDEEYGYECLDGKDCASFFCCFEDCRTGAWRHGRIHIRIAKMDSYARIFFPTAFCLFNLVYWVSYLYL
# T2 sequence (P34903 29-492): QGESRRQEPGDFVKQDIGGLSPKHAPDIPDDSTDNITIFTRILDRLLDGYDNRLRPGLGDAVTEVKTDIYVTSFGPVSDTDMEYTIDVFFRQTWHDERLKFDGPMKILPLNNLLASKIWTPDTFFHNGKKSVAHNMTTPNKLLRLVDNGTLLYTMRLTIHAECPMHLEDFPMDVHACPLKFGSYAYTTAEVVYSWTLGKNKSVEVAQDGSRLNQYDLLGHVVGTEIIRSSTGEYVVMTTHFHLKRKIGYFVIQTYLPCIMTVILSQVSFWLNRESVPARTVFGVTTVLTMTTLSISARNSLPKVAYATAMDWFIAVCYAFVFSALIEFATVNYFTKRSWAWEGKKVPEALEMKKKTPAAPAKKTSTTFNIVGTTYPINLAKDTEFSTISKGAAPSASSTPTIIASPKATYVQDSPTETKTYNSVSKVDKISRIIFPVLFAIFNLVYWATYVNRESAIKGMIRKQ
# T2 sequence (P28472 26-473 partner): as the sequence (P28472 26-473 partner) above
# T2 sequence (P18507 40-475): as the sequence (P18507 40-475) above
SMILES,Change in Temperature (T2 − T1) Mean ± S.E.M. (129SVEV mice; 3 mg/kg PO),Change in Temperature (T2 − T1) Mean ± S.E.M. (129SVEV mice; 10 mg/kg PO),Change in Temperature (T2 − T1) Mean ± S.E.M. (129SVEV mice; 30 mg/kg PO),activation at 0.1 µM [1],activation at 0.1 µM [2]
"Clc1ccc(-c2nc3cccnn3c2Cn2cncn2)cc1 [Compound 32, 3-((1H-1,2,4-triazol-1-yl)methyl)-2-(4-chlorophenyl)imidazo[1,2-b]pyridazine]",0.26 ± 0.04 °C,0.28 ± 0.10 °C,0.37 ± 0.06 °C,,
"NC(=O)c1ncn(Cc2c(-c3ccc(Cl)cc3)nc3ccccn23)n1 [Compound 72, 1-((2-(4-chlorophenyl)imidazo[1,2-a]pyridin-3-yl)methyl)-1H-1,2,4-triazole-3-carboxamide]",0.21 ± 0.11 °C,0.32 ± 0.05 °C,0.44 ± 0.10 °C,-10 to 10%,10 to 50%
"CNC(=O)c1nccn1Cc1c(-c2ccc(Cl)cc2)nc2ccccn12 [Compound 77, 1-((2-(4-chlorophenyl)H-imidazo[1,2-a]pyridin-3-yl)methyl)-N-methyl-1H-imidazole-2-carboxamide]",0.37 ± 0.15 °C,0.55 ± 0.11 °C,0.55 ± 0.12 °C,,
"Cn1ncnc1Cc1c(-c2ccc(F)cc2)nc2ccc(F)cn12 [Compound 200, 6-fluoro-2-(4-fluorophenyl)-3-((1-methyl-1H-1,2,4-triazol-5-yl)methyl)imidazo[1,2-a]pyridine]",−0.13 ± 0.11 °C,−0.50 ± 0.15 °C,−0.66 ± 0.13 °C,,
"Clc1ccc(-c2nc3ccccn3c2Cc2ncn[nH]2)cc1 [Compound 211, 3-((1H-1,2,4-triazol-5-yl)methyl)-2-(4-chlorophenyl)imidazo[1,2-a]pyridine]",0.37 ± 0.08 °C,0.33 ± 0.09 °C,0.37 ± 0.09 °C,,
